Where two headings read alike, the source gives them in different places.
Assays:
[1] = target: H1N1 NA (Influenza A virus (H1N1), UniProt C3W5S3); test: biochemical; type: biochemical
[2] = in vitro; settings: dog
[3] = test system: A/Malaysia/Muar/33/2009 (H1N1); test: Antiviral (virus inhibition) assay in MDCK cells, plaque reduction; type: cell-based; settings: Influenza A virus
[4] = test system: MDCK cells; test: Cell cytotoxicity, cell proliferation assay with WST-1 reagent
[5] = test system: MDCK cells

With `CCCOC(=O)/C=C/c1ccc(O)c(OC)c1` [MY11] the “ΔGbind (estimated experimental)” value [1] was -4.36 kcal/mol.
In the case of `CCOC(=O)/C=C/c1cc(OC)c(O)c([N+](=O)[O-])c1` [MY2], the “ΔGbind (estimated experimental)” value [1] is reported as -4.70 kcal/mol.
In the case of `COc1cc(C=O)cc(NCCO)c1O` [MY22], the “ΔGbind (estimated experimental)” value [1] is reported as -4.67 kcal/mol.
With `COc1c(O)ccc(/C=C/C(=O)O)c1[N+](=O)[O-]` [MY24] the melting point was 165 to 169 °C and the “ΔGbind (estimated experimental)” value [1] was -4.31 kcal/mol.
In the case of `CCCOC(=O)/C=C/c1cc(OC)c(O)c([N+](=O)[O-])c1` [MY14], the “ΔGbind (estimated experimental)” value [1] is reported as -4.76 kcal/mol.
In the case of `CCCCOC(=O)/C=C/c1ccc(O)c(OC)c1` [MY12], the “ΔGbind (estimated experimental)” value [1] is reported as -3.91 kcal/mol.
With `COc1cc(/C=C/C(=O)O)ccc1O` [FA, Ferulic acid, reference compound] the CC50 ([2]; MDCK cells) was 702 µM, the EC50 [3] was 1.32 ± 0.08 µM and the “toxicity on the MDCK cells” value [4] was “without showing any signs of toxicity at high concentrations”. For the same compound, the “ΔGbind (estimated experimental)” value [1] was -5.02 kcal/mol and the inhibition at 125 µg/mL ([1]; read-out: % inhibition of H1N1 NA) was 86%.
In the case of `COC(=O)/C=C/c1cc(OC)c(O)c([N+](=O)[O-])c1` [MY13], the “ΔGbind (estimated experimental)” value [1] is reported as -4.19 kcal/mol.
For `COc1cc(/C=C/C(=O)O)ccc1S(=O)(=O)c1ccc(Oc2ccccc2)cc1` [MY20], the “ΔGbind (estimated experimental)” value [1] was -3.91 kcal/mol.
With `CC(=O)N[C@H]1[C@H]([C@H](O)[C@H](O)CO)OC(C(=O)O)=C[C@@H]1O` [DANA, 2-deoxy-2,3-didehydro-N-acetylneuraminic acid, reference compound] the “ΔGbind (estimated experimental)” value [1] was -6.50 kcal/mol.
In the case of `CCC(CC)O[C@@H]1C=C(C(=O)O)C[C@H](N)[C@H]1NC(C)=O` [Oseltamivir carboxylate, reference compound], the CC50 [2] is reported as 351 µM and the EC50 [3] is reported as 35 µM.
With `CCOC(=O)/C=C/c1cc(OC)c(OC(C)C)c([N+](=O)[O-])c1` [MY3] the CC50 [2] was 321 µM, the EC50 [3] was 7.5 ± 9.3 µM and the “toxicity on the MDCK cells” value [5] was “without showing any signs of toxicity at high concentrations”. For the same compound, the “ΔGbind (estimated experimental)” value [1] was -5.27 kcal/mol.
For `COC(=O)/C=C/c1ccc(O)c(OC)c1` [MY9], the “ΔGbind (estimated experimental)” value [1] was -4.85 kcal/mol.
For `CCOC(=O)/C=C/c1ccc(O)c(OC)c1` [MY10], the “ΔGbind (estimated experimental)” value [1] was -4.42 kcal/mol.
With `CCCCOC(=O)/C=C/c1cc(OC)c(O)c([N+](=O)[O-])c1` [MY15] the CC50 [2] was 352 µM, the EC50 [3] was ~0.95 µM and the “toxicity on the MDCK cells” value [5] was “without showing any signs of toxicity at high concentrations”. The “ΔGbind (estimated experimental)” value [1] was -3.91 kcal/mol.
For `COc1ccc(S(=O)(=O)c2ccc(/C=C/C(=O)O)cc2OC)cc1` [MY19], the “ΔGbind (estimated experimental)” value [1] was -4.38 kcal/mol.
With `COc1cc(C=O)ccc1O` [VN, Vanillin, reference compound] the CC50 [2] was 657 µM, the EC50 [3] was 6.05 ± 4.3 µM and the “toxicity on the MDCK cells” value [5] was “without showing any signs of toxicity at high concentrations”. The “ΔGbind (estimated experimental)” value [1] was -4.78 kcal/mol.
For `COc1cc(C=O)cc(N=C(N)N)c1O` [MY21, guanidino vanillin], the CC50 [2] was 478 µM, the EC50 [3] was 1.7 ± 0.02 µM and the “toxicity on the MDCK cells” value [5] was “without showing any signs of toxicity at high concentrations”. The “ΔGbind (estimated experimental)” value [1] was -5.60 kcal/mol.
For `COc1cc(C=O)cc(O)c1O` [MY23, 3-hydroxyvanillin], the CC50 [2] was 601 µM, the EC50 [3] was 40.5 ± 3.7 µM and the “toxicity on the MDCK cells” value [5] was “significant reduction in cell viability”. For the same compound, the “% inhibition of H1N1 NA” value [1] was “high inhibition” and the “ΔGbind (estimated experimental)” value [1] was -5.43 kcal/mol.
In the case of `COc1cccc(S(=O)(=O)c2ccc(/C=C/C(=O)O)cc2OC)c1` [MY18], the “ΔGbind (estimated experimental)” value [1] is reported as -3.91 kcal/mol.

From article PMC5171792 (Scientific Reports, 2016)
